Reference: US12077503B2, “Substituted cyclic amides and their use as herbicides” (FMC CORPORATION, priority 2015, dated 2024)
Like-named read-outs stand apart in the source and are kept apart here.

What was measured:
Format in all cases: in vivo
[1] = tested on: giant foxtail (Setaria faberii); assay: Test A preemergence; details: Setaria faberi, pre-emergence, 240 h, preemergence, 0 to 100 scale where 0 is no effect and 100 is complete control, read-out: Foxtail, Giant plant response rating; for pest or weed control at 125 g/ha: 125 g ai/ha; for pest or weed control at 500 g/ha: 500 g ai/ha
How it was run: (§1)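 Treatment is preemergence as a directed soil spray after planting, or postemergence at the one- to two-leaf stage, with test chemical in a non-phytotoxic solvent mixture plus surfactant. Plants stay in the greenhouse about 10 d before visual injury scoring on a 0 to 100 scale versus untreated controls.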

[2] = tested on: ryegrass, Italian (Italian ryegrass, Lolium multiflorum); assay: Test A preemergence; details: Lolium multiflorum, pre-emergence, 240 h, preemergence, 0 to 100 scale where 0 is no effect and 100 is complete control, read-out: Ryegrass, Italian plant response rating; for pest or weed control at 125 g/ha: 125 g ai/ha; for pest or weed control at 500 g/ha: 500 g ai/ha
How it was run: as §1

[3] = tested on: Kochia (Kochia scoparia); assay: Test A preemergence; details: Bassia scoparia, pre-emergence, 240 h, preemergence, 0 to 100 scale where 0 is no effect and 100 is complete control, read-out: Kochia plant response rating; for pest or weed control at 125 g/ha: 125 g ai/ha; for pest or weed control at 500 g/ha: 500 g ai/ha
How it was run: as §1

[4] = tested on: pigweed (Amaranthus retroflexus); assay: Test A preemergence; details: Amaranthus retroflexus, pre-emergence, 240 h, preemergence, 0 to 100 scale where 0 is no effect and 100 is complete control, read-out: Pigweed plant response rating; for pest or weed control at 125 g/ha: 125 g ai/ha; for pest or weed control at 500 g/ha: 500 g ai/ha
[5] = tested on: barnyardgrass (Echinochloa crus-galli); assay: Test A preemergence; details: Echinochloa crus-galli, pre-emergence, 240 h, preemergence, 0 to 100 scale where 0 is no effect and 100 is complete control, read-out: Barnyardgrass plant response rating; for pest or weed control at 125 g/ha: 125 g ai/ha; for pest or weed control at 500 g/ha: 500 g ai/ha
How it was run: as §1

[6] = tested on: ragweed (common ragweed, Ambrosia elatior); assay: Test A preemergence; details: Ambrosia artemisiifolia, pre-emergence, 240 h, preemergence, 0 to 100 scale where 0 is no effect and 100 is complete control, read-out: Ragweed plant response rating; for pest or weed control at 125 g/ha: 125 g ai/ha; for pest or weed control at 500 g/ha: 500 g ai/ha
How it was run: as §1

[7] = tested on: sedge, umbrella (small-flower umbrella sedge, Cyperus difformis); assay: Test B flooded paddy test; details: Cyperus difformis, 250 g ai/ha, Flood; 0 to 100 scale where 0 is no effect and 100 is complete control; read-out: Sedge, Umbrella plant response rating
How it was run: (§2)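 Response scored visually against untreated controls, 0 = no effect and 100 = complete control, 13–15 d after treatment in the greenhouse. Compounds added to paddy water held 3 cm above soil surface. Treatment given at 2-leaf stage.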

[8] = tested on: ducksalad (Heteranthera limosa); assay: Test B flooded paddy test; details: Heteranthera limosa, 250 g ai/ha, Flood; 0 to 100 scale where 0 is no effect and 100 is complete control; read-out: Ducksalad plant response rating
How it was run: as §2

[9] = tested on: rice (Oryra sativa); assay: Test B flooded paddy test; details: Oryza sativa, 250 g ai/ha, Flood; 0 to 100 scale where 0 is no effect and 100 is complete control; read-out: Rice plant response rating
How it was run: as §2

[10] = tested on: barnyardgrass (Echinochloa crus-galli); assay: Test B flooded paddy test; details: Echinochloa crus-galli, 250 g ai/ha, Flood; 0 to 100 scale where 0 is no effect and 100 is complete control; read-out: Barnyardgrass plant response rating
How it was run: as §2

[11] = tested on: corn (Zea mays); assay: Test A postemergence; details: Zea mays, post-emergence, 240 h, postemergence; for plant injury at 125 g/ha: 125 g ai/ha, visual injury vs untreated controls after approx. 10 d, 0 = no effect, 100 = complete control, read-out: Corn plant response rating (0 to 100 scale); for plant injury at 500 g/ha: 500 g ai/ha, 0 to 100 scale, 0 is no effect, 100 is complete control, read-out: Corn plant response rating
How it was run: as §1

[12] = tested on: ryegrass, Italian (Italian ryegrass, Lolium multiflorum); assay: Test A postemergence; details: Lolium multiflorum, post-emergence, 240 h, postemergence; for pest or weed control at 125 g/ha: 125 g ai/ha, visual injury vs untreated controls after approx. 10 d, 0 = no effect, 100 = complete control, read-out: Ryegrass, Italian plant response rating (0 to 100 scale); for pest or weed control at 500 g/ha: 500 g ai/ha, 0 to 100 scale, 0 is no effect, 100 is complete control, read-out: Ryegrass, Italian plant response rating
How it was run: as §1

[13] = tested on: pigweed (Amaranthus retroflexus); assay: Test A postemergence; details: Amaranthus retroflexus, post-emergence, 240 h, postemergence; for pest or weed control at 125 g/ha: 125 g ai/ha, visual injury vs untreated controls after approx. 10 d, 0 = no effect, 100 = complete control, read-out: Pigweed plant response rating (0 to 100 scale); for pest or weed control at 500 g/ha: 500 g ai/ha, 0 to 100 scale, 0 is no effect, 100 is complete control, read-out: Pigweed plant response rating
How it was run: as §1

[14] = tested on: blackgrass (Alopecurus myosuroides); assay: Test A postemergence; details: Alopecurus myosuroides, post-emergence, 240 h, postemergence; for pest or weed control at 125 g/ha: 125 g ai/ha, visual injury vs untreated controls after approx. 10 d, 0 = no effect, 100 = complete control, read-out: Blackgrass plant response rating (0 to 100 scale); for pest or weed control at 500 g/ha: 500 g ai/ha, 0 to 100 scale, 0 is no effect, 100 is complete control, read-out: Blackgrass plant response rating
How it was run: as §1

[15] = tested on: ragweed (common ragweed, Ambrosia elatior); assay: Test A postemergence; details: Ambrosia artemisiifolia, post-emergence, 240 h, postemergence; for pest or weed control at 125 g/ha: 125 g ai/ha, visual injury vs untreated controls after approx. 10 d, 0 = no effect, 100 = complete control, read-out: Ragweed plant response rating (0 to 100 scale); for pest or weed control at 500 g/ha: 500 g ai/ha, 0 to 100 scale, 0 is no effect, 100 is complete control, read-out: Ragweed plant response rating
How it was run: as §1

[16] = visual injury rating, approximately 10 d

Work on `CSc1ccccc1NC(=O)[C@H]1C(=O)N(C)C[C@@H]1c1ccc(OC(F)F)cc1` [Compound 1212] yielded a pest or weed control at 125 g/ha [1, 16] of 90%, a pest or weed control at 500 g/ha [1] of 100% and a pest or weed control at 125 g/ha [2, 16] of 0%. The pest or weed control at 500 g/ha [2] was 70%, the pest or weed control at 125 g/ha [3, 16] was 100% and the pest or weed control at 500 g/ha [3] was 100%. For the same compound, the pest or weed control at 125 g/ha [4, 16] was 80%, the pest or weed control at 500 g/ha [4] was 90% and the pest or weed control at 125 g/ha [5, 16] was 80%. It also gave a pest or weed control at 500 g/ha [5] of 100%, a pest or weed control at 125 g/ha [6, 16] of 40% and a pest or weed control at 500 g/ha [6] of 90%. For the same compound, the pest or weed control at 250 g/ha [7] was 0%, the pest or weed control at 250 g/ha [8] was 95% and the pest or weed control at 250 g/ha [9] was 0%. The pest or weed control at 250 g/ha [10] was 0%, the plant injury at 125 g/ha [11] was 0% and the plant injury at 500 g/ha [11] was 20%. It also gave a pest or weed control at 125 g/ha [12] of 0%, a pest or weed control at 500 g/ha [12] of 20% and a pest or weed control at 125 g/ha [13] of 50%. It also gave a pest or weed control at 500 g/ha [13] of 70%, a pest or weed control at 125 g/ha [14] of 0% and a pest or weed control at 500 g/ha [14] of 30%. It also gave a pest or weed control at 125 g/ha [15] of 0% and a pest or weed control at 500 g/ha [15] of 30%.
`O=C1NC[C@H](c2cccc(I)c2)[C@H]1C(=O)Nc1ccccc1F` [Compound 1160] showed a pest or weed control at 125 g/ha ([1]; approx. 10 d) of 90%, a pest or weed control at 500 g/ha [1] of 90% and a pest or weed control at 125 g/ha ([2]; approx. 10 d) of 0%. It also gave a pest or weed control at 500 g/ha [2] of 0%, a pest or weed control at 125 g/ha ([3]; approx. 10 d) of 0% and a pest or weed control at 500 g/ha [3] of 50%. For the same compound, the pest or weed control at 125 g/ha ([4]; approx. 10 d) was 0%, the pest or weed control at 500 g/ha [4] was 20% and the pest or weed control at 125 g/ha ([5]; approx. 10 d) was 90%. The pest or weed control at 500 g/ha [5] was 90%, the pest or weed control at 125 g/ha ([6]; approx. 10 d) was 0% and the pest or weed control at 500 g/ha [6] was 0%. For the same compound, the pest or weed control at 250 g/ha [7] was 0%, the pest or weed control at 250 g/ha [8] was 80% and the pest or weed control at 250 g/ha [9] was 20%. The pest or weed control at 250 g/ha [10] was 0%, the plant injury at 125 g/ha [11] was 40% and the plant injury at 500 g/ha [11] was 80%. The pest or weed control at 125 g/ha [12] was 20%, the pest or weed control at 500 g/ha [12] was 20% and the pest or weed control at 125 g/ha [13] was 0%. The pest or weed control at 500 g/ha [13] was 0%, the pest or weed control at 125 g/ha [14] was 0% and the pest or weed control at 500 g/ha [14] was 50%. For the same compound, the pest or weed control at 125 g/ha [15] was 0% and the pest or weed control at 500 g/ha [15] was 0%.
With `COc1cc(C(F)(F)F)ccc1[C@H]1CNC(=O)[C@@H]1C(=O)Nc1ccccc1F` [Compound 1202] the pest or weed control at 125 g/ha [1, 16] was 50%, the pest or weed control at 500 g/ha [1] was 90% and the pest or weed control at 125 g/ha [2, 16] was 0%. The pest or weed control at 500 g/ha [2] was 60%, the pest or weed control at 125 g/ha [3, 16] was 20% and the pest or weed control at 500 g/ha [3] was 60%. For the same compound, the pest or weed control at 125 g/ha [4, 16] was 0%, the pest or weed control at 500 g/ha [4] was 0% and the pest or weed control at 125 g/ha [5, 16] was 90%. For the same compound, the pest or weed control at 500 g/ha [5] was 90%, the pest or weed control at 125 g/ha [6, 16] was 0% and the pest or weed control at 500 g/ha [6] was 90%. The pest or weed control at 250 g/ha [7] was 0%, the pest or weed control at 250 g/ha [8] was 100% and the pest or weed control at 250 g/ha [9] was 0%. It also gave a pest or weed control at 250 g/ha [10] of 0%, a plant injury at 125 g/ha [11] of 20% and a plant injury at 500 g/ha [11] of 30%. The pest or weed control at 125 g/ha [12] was 0%, the pest or weed control at 500 g/ha [12] was 0% and the pest or weed control at 125 g/ha [13] was 0%. The pest or weed control at 500 g/ha [13] was 20%, the pest or weed control at 125 g/ha [14] was 0% and the pest or weed control at 500 g/ha [14] was 40%. For the same compound, the pest or weed control at 125 g/ha [15] was 0% and the pest or weed control at 500 g/ha [15] was 20%.
